{"source": "patent US7423068B2", "about": "“Control of parasitic mites of honey bees” (The United States of America as represented by the …, priority 2001, dated 2008)", "key": {"Varroa mite": {"tested_on": "Varroa mite", "assay": "Miticidal activity in 5-frame honey bee colonies (sticky board counts)", "format": "in vivo, Varroa jacobsoni", "description": "This set of bioassays was conducted in 5-frame colonies. We tested miticidal activity of 30% concentration 2-heptanone in an acrylic block dispenser. Four colonies were established for each of the following treatments: 2-heptanone, Apistan® (a commercially available miticide for control of Varroa), and no treatment (i.e., Controls). Before each treatment, counts were made of the number of mites that dropped on to Dewill® Varroa Mite Detector Inserts (hereinafter denoted as “sticky boards”) placed at the bottom of colonies for one week (pre-treatment counts). A new sticky board then was inserted at the bottom of each colony, and either a single acrylic block dispenser with 30% 2-heptanone made as in Example 6 (surface area=28.3 cm^2) or a single Apistan® strip was placed between the frames. The Controls comprised no treatment. The number of mites on the sticky boards was counted weekly for 3-4 weeks afterwards (treatment interval). New sticky boards were inserted at the beginning of each week. At the end of the test period, the 2-heptanone and Apistan® were removed, and a new sticky board was inserted on the bottom of the colonies. A new Apistan® strip then was placed in the colonies to kill any remaining mites (post-treatment interval). The number of mites on the sticky board was counted after the colony was exposed to the new Apistan® strip for one week. The % Reduction in the Varroa Population was estimated by summing all the mites counted on the sticky board during the 3 or 4 week treatment interval and dividing it by the total number of mites counted for the colony during both the treatment and post-treatment intervals.\nWhen we removed the acrylic strips from the colony after three weeks, we could still detect the odor of 2-heptanone. We repeated the test with new colonies, and in this trial (Trial-2) left the 2-heptanone and Apistan® strips in the colony for 4 weeks. We then placed the post-treatment Apistan® strips in the colonies.\nThis test (Trial 3) was carried out in 5-frame colonies as described above except for the following changes. […]"}, "Varroa mites [1]": {"tested_on": "Varroa mites", "assay": "Varroa trapping device in a Varroa-infested 9-frame colony", "format": "in vivo, Varroa jacobsoni", "conditions": "trap coated with 20% 2-heptanone gel, between brood frames, after 48 hrs", "text": "In a second test to determine if 2-heptanone is an attractant, a Varroa trapping device was placed in a Varroa-infested 9-frame colony for 48 hrs. The device was constructed by placing a 2.54 cm^2 piece of Dewill® Varroa Mite Detector Insert coated with a 20% concentration of 2-heptanone in a gel formulation and covered with a 0.63 cm (0.25 inch) wire mesh. A wire was placed through the top of the trap so that the trap dangled between the frames in the colony. The device was placed between frames containing brood."}, "Varroa mites [2]": {"tested_on": "Varroa mites", "assay": "Bulls eye petri dish bioassay for attractiveness", "format": "in vivo, Varroa jacobsoni", "conditions": "for % of Varroa at distance from Target Source 2.5 cm / % of Varroa at distance from Target Source 3.8 cm / % of Varroa at distance from Target Source 6.3 cm / % of Varroa in Target / % of Varroa at distance from Target Source 1.3 cm / % of Varroa at distance from Target Source 5.1 cm: 0.04 g of 30% 2-heptanone acrylic block", "description": "A third bioassay to test for attractiveness of 2-heptanone to Varroa was conducted in petri dishes with a diameter of 13.97 cm and a volume of 76.64 cm^3. The dishes were prepared as described previously in the first bioassay of this Example using 20% gel formulation of 2-heptanone. However, the petri dishes for this bioassay were modified by drilling a hole 1.6 cm in diameter into the center of the dish. This hole was large enough to fit a 1.5 mL Eppendorf® tube which would serve as the dispenser for the 2-heptanone. The lid of each petri dish was labeled in a “bulls eye” fashion with concentric circles at 1.27 cm increments from the center where the Eppendorf® tube was located. The maximum distance from the center was 6.35 cm. The Eppendorf® tube is considered the target. In the treatment dishes, 0.04 g of 2-heptanone in acrylic block formulation (30% concentration) was placed in the Eppendorf® tube and covered with a small amount of sterile cotton. Control dishes were prepared in the same manner as the treatment dishes but the Eppendorf® tubes contained only cotton. Mites (4-5 per dish) were placed in each dish in the area furthest from the center where the Eppendorf® tube was located.\nAfter the dishes were prepared a square section of mosquito netting large enough to cover the top of the petri dish was placed over the dish and secured with a rubber band. The mosquito netting was used instead of a lid on the dish. The mesh of the netting was wide enough to allow the 2-heptanone to volatilize, but prevented the mites from escaping. The marked lids were placed on top of the dishes every 30 minutes to document mite movement. After the measurements were made, the lids were immediately removed.\nA fourth test of attractiveness was conducted in the petri dishes that were prepared as described above. In this test 0.06 g of 2-heptanone (30% concentration in acrylic block delivery system) was placed in the center target of the treatment plates. Control plates contained an empty Eppendorf® tube. The mites were placed 3.17 cm from the target. The mites could move closer or farther away from the target. Two treatment and two Control plates with 5 mites each were observed."}, "[3]": {"tested_on": "wax moth (Galleria mellonella)", "assay": "Control of wax moth in stored frames with drawn comb", "format": "in vivo", "conditions": "1, 2 or 3 slow release strips with 60 grams 2-heptanone, after 5 weeks; equipment without 2-heptanone totally infested", "text": "We conducted an experiment where we stored five frames with drawn comb in a nucleus colony box without bees present. In three nucleus colony boxes we placed 1, 2 or 3 strips containing 60 grams of 2-heptanone in a slow release formulation. In a fourth nucleus colony box we placed no 2-heptanone. Within 2 weeks after the start of the experiment, the equipment without 2-heptanone had wax moth adults present between the frames. The adults probably were laying eggs. After 5 weeks, the equipment without 2-heptanone was totally infested with wax moth. There still was no wax moth in any equipment containing 2-heptanone."}, "[4]": {"conditions": "exposure 1 hr, significantly different from Control"}}, "note": "Marks after values point to notes of the source that are not given here.", "data": [{"smiles": "CCCCCC(C)=O", "note": "[2-Heptanone]", "values": [{"measurement": "% Reduction in Varroa Mite Population ± S.E.", "setting": "Varroa mite; Trial 1, 3 week treatment, 30% 2-heptanone acrylic block or single Apistan strip, Control 42.2 ± 7.0", "value": "61.8 ± 8.5", "unit": "a %"}, {"measurement": "% Reduction in Varroa Mite Population ± S.E.", "setting": "Varroa mite; Trial 2, 4 week treatment, 30% 2-heptanone acrylic block or single Apistan strip, Control 43.6 ± 4.2", "value": "73.6 ± 13.7", "unit": "a %"}, {"measurement": "% Reduction in Varroa Mite Population ± S.E.", "setting": "Varroa mite; Trial 3, controlled release strip with 60 g 2-heptanone on top bar, renewed after 3 weeks, or Apistan strip, Control 69.35 ± 4.8", "value": "87.05 ± 4.4", "unit": "a %"}, {"measurement": "Varroa mites found stuck in the gel on the trap", "setting": "Varroa mites [1]", "value": "several hundred"}, {"measurement": "% of Varroa at distance from Target Source 2.5 cm", "setting": "Varroa mites [2]; exposure 1 hr", "value": 7.5, "unit": "%"}, {"measurement": "% of Varroa at distance from Target Source 3.8 cm", "setting": "Varroa mites [2]; exposure 1 hr", "value": 25.0, "unit": "%"}, {"measurement": "% of Varroa at distance from Target Source 6.3 cm", "setting": "Varroa mites [2]; exposure 1 hr", "value": 17.5, "unit": "%"}, {"measurement": "% of Varroa in Target", "setting": "Varroa mites [2]; exposure 1 hr", "value": 0, "unit": "%"}, {"measurement": "% of Varroa at distance from Target Source 1.3 cm", "setting": "Varroa mites [2]; [4]", "value": "27.5* %"}, {"measurement": "% of Varroa at distance from Target Source 5.1 cm", "setting": "Varroa mites [2]; [4]", "value": "16.2* %"}, {"measurement": "% of Varroa at distance from Target Source 1.3 cm", "setting": "Varroa mites [2]; exposure 2 hrs", "value": 32.5, "unit": "%"}, {"measurement": "% of Varroa at distance from Target Source 2.5 cm", "setting": "Varroa mites [2]; exposure 2 hrs", "value": 20.0, "unit": "%"}, {"measurement": "% of Varroa at distance from Target Source 3.8 cm", "setting": "Varroa mites [2]; exposure 2 hrs", "value": 12.5, "unit": "%"}, {"measurement": "% of Varroa at distance from Target Source 5.1 cm", "setting": "Varroa mites [2]; exposure 2 hrs", "value": 15.0, "unit": "%"}, {"measurement": "% of Varroa at distance from Target Source 6.3 cm", "setting": "Varroa mites [2]; exposure 2 hrs", "value": 10.0, "unit": "%"}, {"measurement": "% of Varroa in Target", "setting": "Varroa mites [2]; exposure 2 hrs", "value": 7.5, "unit": "%"}, {"measurement": "% of Varroa at distance from Target Source 1.3 cm", "setting": "Varroa mites [2]; exposure 3 hrs", "value": 45.6, "unit": "%"}, {"measurement": "% of Varroa at distance from Target Source 2.5 cm", "setting": "Varroa mites [2]; exposure 3 hrs", "value": 10.6, "unit": "%"}, {"measurement": "% of Varroa at distance from Target Source 3.8 cm", "setting": "Varroa mites [2]; exposure 3 hrs", "value": 22.5, "unit": "%"}, {"measurement": "% of Varroa at distance from Target Source 5.1 cm", "setting": "Varroa mites [2]; exposure 3 hrs", "value": 12.5, "unit": "%"}, {"measurement": "% of Varroa at distance from Target Source 6.3 cm", "setting": "Varroa mites [2]; exposure 3 hrs", "value": 7.5, "unit": "%"}, {"measurement": "% of Varroa in Target", "setting": "Varroa mites [2]; exposure 3 hrs", "value": 3.1, "unit": "%"}, {"measurement": "% of Varroa at distance from Target Source 1.3 cm", "setting": "Varroa mites [2]; exposure 4 hrs", "value": 42.2, "unit": "%"}, {"measurement": "% of Varroa at distance from Target Source 2.5 cm", "setting": "Varroa mites [2]; exposure 4 hrs", "value": 13.3, "unit": "%"}, {"measurement": "% of Varroa at distance from Target Source 3.8 cm", "setting": "Varroa mites [2]; exposure 4 hrs", "value": 20.0, "unit": "%"}, {"measurement": "% of Varroa at distance from Target Source 5.1 cm", "setting": "Varroa mites [2]; exposure 4 hrs", "value": 18.8, "unit": "%"}, {"measurement": "% of Varroa at distance from Target Source 6.3 cm", "setting": "Varroa mites [2]; exposure 4 hrs", "value": 5.5, "unit": "%"}, {"measurement": "% of Varroa in Target", "setting": "Varroa mites [2]; exposure 4 hrs", "value": 0, "unit": "%"}, {"measurement": "% of mites that moved into the target", "setting": "Varroa mites [2]; fourth test, 0.06 g of 30% 2-heptanone acrylic block, 4 hr. observation, Controls 0.0%", "value": 9.1, "unit": "%"}, {"measurement": "% of mites that moved within 1.27 cm of the target", "setting": "Varroa mites [2]; fourth test, 0.06 g of 30% 2-heptanone acrylic block, mites placed 3.17 cm from target, 4 hr. observation, Controls 6.2%", "value": 38.4, "unit": "%"}, {"measurement": "wax moth infestation of stored equipment", "setting": "[3]", "value": "no wax moth"}]}]}
